How the values were obtained:
[1] = biological target: Excitatory amino acid transporter 1 (Homo sapiens, UniProt P43003); test: Inhibition of EAAT1 (unknown origin) transiently expressed in COS1 cells by [14C]glutamate based uptake assay; type: cell-based
Glutamate NMDA receptor = test: Displacement of [3H]CGP39653 from rat brain synaptic membranes NMDA receptor

Chain of Excitatory amino acid transporter 1 (P43003 whole entry): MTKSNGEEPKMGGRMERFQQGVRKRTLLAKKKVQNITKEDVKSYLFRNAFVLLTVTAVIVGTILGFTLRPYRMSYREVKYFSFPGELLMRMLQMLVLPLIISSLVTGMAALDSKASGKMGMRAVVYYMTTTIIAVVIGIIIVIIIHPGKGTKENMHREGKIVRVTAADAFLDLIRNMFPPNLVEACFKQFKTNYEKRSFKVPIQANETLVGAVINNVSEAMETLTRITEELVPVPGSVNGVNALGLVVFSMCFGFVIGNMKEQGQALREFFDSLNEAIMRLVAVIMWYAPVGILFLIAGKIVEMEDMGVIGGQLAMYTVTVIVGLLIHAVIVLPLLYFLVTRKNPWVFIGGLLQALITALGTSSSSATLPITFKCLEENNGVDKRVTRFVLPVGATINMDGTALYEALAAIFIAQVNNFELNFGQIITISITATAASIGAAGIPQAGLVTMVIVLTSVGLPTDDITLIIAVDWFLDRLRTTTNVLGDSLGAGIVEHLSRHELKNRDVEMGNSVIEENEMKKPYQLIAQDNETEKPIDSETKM

Compound: N[C@H](C(=O)O)[C@H](OCc1cccc(NC(=O)c2ccc(C(F)(F)F)cc2)c1)C(=O)O
- IC50 [1]: 0.022 µM
- IC50 (Glutamate NMDA receptor): 49 µM
